In patent publication US4767762A, “Tricyclic quinoline and naphthyride antibacterials” (Abbott Laboratories, priority 1986, dated 1988) one finds MIC data, which are given here for seven molecules.

Each structure is given as a SMILES string. ≈ marks a conversion by molar mass, not a printed value. A value given as a limit tells only on which side of the number the result lay.

What all share (experiment): in vitro antibacterial activity (MIC), conventional agar dilution
Holding throughout (assay type): cell-based
In general terms: In agar dilution the substance is mixed into plates at graded concentrations.

The test system of one assay is P. stuartii CMX 640. The conditions noted are these: Providencia stuartii, CMX640, brain-heart infusion agar, inoculum 10^4 /plate. The protocol: (§1) The in vitro antibacterial activity is determined by conventional agar dilution procedures. A brain-heart infusion agar medium containing the drug is inoculated with a microbial culture cultivated on a brain-infusion broth (Difco 0037-01-6) at 36° C. for 18 hours and then observes for growth of the microorganism. The minimum concentration at which growth of the microorganism is inhibited is taken as MIC (ug/ml). The inoculum size is 10^4 /plate.

The test system of assay [1] is Ent. aerogenes ATCC 13048. The conditions noted are these: Klebsiella aerogenes, ATCC13048, brain-heart infusion agar, inoculum 10^4 /plate. The protocol:
as §1

The next assay concerns Ent. faecium ATCC 8043. The conditions noted are these: Enterococcus faecium, ATCC8043, brain-heart infusion agar, inoculum 10^4 /plate. The protocol: as §1
The next assay has as its system Stap. aureus ATCC-6538p. As to conditions: Staphylococcus aureus, ATCC6538P, brain-heart infusion agar, inoculum 10^4 /plate. The protocol: as §1
A further assay concerns Strep. Pyogenes EES61. The conditions noted are these: Streptococcus pyogenes, brain-heart infusion agar, inoculum 10^4 /plate. The protocol:
as §1

Another assay deals with Stap. epidermis 3519. The conditions noted are these: brain-heart infusion agar, inoculum 10^4 /plate. The protocol: as §1
A further assay concerns P. aeruginosa A5007. The conditions noted are these: Pseudomonas aeruginosa, brain-heart infusion agar, inoculum 10^4 /plate. The protocol:
as §1

The next assay concerns E. coli Juhl. As to conditions: Escherichia coli, brain-heart infusion agar, inoculum 10^4 /plate. The protocol: as §1
The subject of a further assay is Acinetobacter sp CMX 669. As to conditions: CMX669, brain-heart infusion agar, inoculum 10^4 /plate. The protocol:
as §1

A further assay relates to K. pneumoniae ATCC 8045. The conditions noted are these: Klebsiella pneumoniae, ATCC8045, brain-heart infusion agar, inoculum 10^4 /plate. The protocol: as §1

On to `CN1CCN(c2cc3c(cc2F)c(=O)c2c(=O)[nH]sc2n3-c2ccc(F)cc2)CC1` [46(a), 9-p-fluorophenyl-6-fluoro-7-(4-methyl-1-piperazinyl)-2,3,4,9-tetrahydroisothiazolo[5,4-b]quinoline-3,4-dione], for which the MIC against P. stuartii CMX 640 stood at 12.5 µg/mL (≈ 29.2 µM); in assay [1], 0.39 µg/mL (≈ 0.91 µM); in the assay with Ent. faecium ATCC 8043, 1.56 µg/mL (≈ 3.64 µM); in the assay with Stap. aureus ATCC-6538p, 0.01 µg/mL (≈ 0.0233 µM); with Strep. Pyogenes EES61, 1.56 µg/mL (≈ 3.64 µM); with Stap. epidermis 3519, 0.2 µg/mL (≈ 0.467 µM). Besides, the minimal inhibitory concentration (MIC) in the assay with P. aeruginosa A5007 was 1.56 µg/mL (≈ 3.64 µM); against E. coli Juhl, 0.2 µg/mL (≈ 0.467 µM); against Acinetobacter sp CMX 669 it was 0.2 µg/mL (≈ 0.467 µM); in the assay with K. pneumoniae ATCC 8045, 0.1 µg/mL (≈ 0.233 µM).

As to `CC1CN(c2cc3c(cc2F)c(=O)c2c(=O)[nH]sc2n3-c2ccc(F)cc2)CCN1` (stereo not shown) [46(b), 9-p-fluorophenyl-6-fluoro-7-(3-methyl-1-piperazinyl)-2,3,4,9-tetrahydroisothiazolo[5,4-b]quinoline-3,4-dione], the MIC is 6.2 µg/mL (≈ 14.5 µM) with P. stuartii CMX 640; 0.02 µg/mL (≈ 0.0467 µM) in [1]; 0.78 µg/mL (≈ 1.82 µM) in the assay on Ent. faecium ATCC 8043; 0.01 µg/mL (≈ 0.0233 µM) against Stap. aureus ATCC-6538p; 0.78 µg/mL (≈ 1.82 µM) against Strep. Pyogenes EES61; 0.2 µg/mL (≈ 0.467 µM) in the assay on Stap. epidermis 3519. The MIC stood at 1.56 µg/mL (≈ 3.64 µM) against P. aeruginosa A5007, 0.05 µg/mL (≈ 0.117 µM) with E. coli Juhl, 0.1 µg/mL (≈ 0.233 µM) in the assay on Acinetobacter sp CMX 669 and 0.01 µg/mL (≈ 0.0233 µM) against K. pneumoniae ATCC 8045.

With `CCn1c2cc(N3CCCC3)c(F)cc2c(=O)c2c(=O)[nH]sc21` [46(bbb), 9-ethyl-6-fluoro-7-(1-pyrrolidinyl)-2,3,4,9-tetrahydroisothiazolo[5,4-b]quinoline-3,4-dione], the MIC with P. stuartii CMX 640 was more than 100 µg/mL; in assay [1], 0.2 µg/mL (≈ 0.6 µM); against Ent. faecium ATCC 8043, 0.2 µg/mL (≈ 0.6 µM); with Stap. aureus ATCC-6538p it was 0.01 µg/mL (≈ 0.03 µM); against Strep. Pyogenes EES61, 1.56 µg/mL (≈ 4.68 µM); against Stap. epidermis 3519 it was 0.02 µg/mL (≈ 0.06 µM). Further, the MIC against P. aeruginosa A5007 stood at 0.2 µg/mL (≈ 0.6 µM); against E. coli Juhl, 0.05 µg/mL (≈ 0.15 µM); with Acinetobacter sp CMX 669 it was 0.2 µg/mL (≈ 0.6 µM); with K. pneumoniae ATCC 8045, 0.05 µg/mL (≈ 0.15 µM).

With `CCn1c2s[nH]c(=O)c2c(=O)c2cc(F)c(N3CCN(C)CC3)c(F)c21` [46(cc), 9-ethyl-6,8-difluoro-7-(4-methyl-1-piperazinyl)-2,3,4,9-tetrahydroisothiazolo[5,4-b]quinoline-3,4-dione], the MIC stood at 3.1 µg/mL (≈ 8.15 µM) in the assay with P. stuartii CMX 640; 0.2 µg/mL (≈ 0.526 µM) in assay [1]; 0.39 µg/mL (≈ 1.03 µM) in the assay on Ent. faecium ATCC 8043; 0.1 µg/mL (≈ 0.263 µM) in the assay on Stap. aureus ATCC-6538p; 0.78 µg/mL (≈ 2.05 µM) against Strep. Pyogenes EES61; 0.2 µg/mL (≈ 0.526 µM) against Stap. epidermis 3519. Also, the MIC is 3.1 µg/mL (≈ 8.15 µM) against P. aeruginosa A5007, 0.1 µg/mL (≈ 0.263 µM) in the assay on E. coli Juhl, 0.1 µg/mL (≈ 0.263 µM) against Acinetobacter sp CMX 669 and 0.05 µg/mL (≈ 0.131 µM) in the assay on K. pneumoniae ATCC 8045.

In the case of `CCn1c2s[nH]c(=O)c2c(=O)c2cc(F)c(N3CCNCC3)c(F)c21` [46(dd), 9-ethyl-6,8-difluoro-7-(piperazinyl)-2,3,4,9-tetrahydroisothiazolo[5,4-b]quinoline-3,4-dione], the MIC against P. stuartii CMX 640 worked out at 0.78 µg/mL (≈ 2.13 µM); in assay [1], 0.05 µg/mL (≈ 0.136 µM); with Ent. faecium ATCC 8043, 0.2 µg/mL (≈ 0.546 µM); against Stap. aureus ATCC-6538p, 0.05 µg/mL (≈ 0.136 µM); against Strep. Pyogenes EES61, 0.39 µg/mL (≈ 1.06 µM); with Stap. epidermis 3519 it was 0.05 µg/mL (≈ 0.136 µM). Moreover, the MIC turned out to be 0.78 µg/mL (≈ 2.13 µM) in the assay on P. aeruginosa A5007, 0.05 µg/mL (≈ 0.136 µM) with E. coli Juhl, 0.2 µg/mL (≈ 0.546 µM) against Acinetobacter sp CMX 669 and 0.05 µg/mL (≈ 0.136 µM) against K. pneumoniae ATCC 8045.

As to `CC1CN(c2cc3c(cc2F)c(=O)c2c(=O)[nH]sc2n3-c2ccc(F)cc2F)CC1N` (stereo not shown) [46(g), 9-o,p-difluorophenyl-6-fluoro-7-(3-amino-4-methyl-1-pyrrolidinyl)-2,3,4,9-tetrahydroisothiazolo[5,4-b]quinoline-3,4-dione], the MIC was 0.39 µg/mL (≈ 0.874 µM) against P. stuartii CMX 640; 0.1 µg/mL (≈ 0.224 µM) in assay [1]; 0.2 µg/mL (≈ 0.448 µM) with Ent. faecium ATCC 8043; 0.05 µg/mL (≈ 0.112 µM) with Stap. aureus ATCC-6538p; 0.78 µg/mL (≈ 1.75 µM) in the assay with Strep. Pyogenes EES61; 0.1 µg/mL (≈ 0.224 µM) with Stap. epidermis 3519. Moreover, the MIC against P. aeruginosa A5007 came to 0.78 µg/mL (≈ 1.75 µM); against E. coli Juhl, 0.05 µg/mL (≈ 0.112 µM); against Acinetobacter sp CMX 669, 0.1 µg/mL (≈ 0.224 µM); in the assay on K. pneumoniae ATCC 8045 it was 0.1 µg/mL (≈ 0.224 µM).

For the molecule `CCn1c2cc(N3CCN(C)CC3)c(F)cc2c(=O)c2c(=O)[nH]sc21` [46(l), 9-ethyl-6-fluoro-7-(4-methyl-1-piperazinyl)-2,3,4,9-tetrahydroisothiazolo[5,4-b]quinoline-3,4-dione], the MIC in the assay on P. stuartii CMX 640 is 1.56 µg/mL (≈ 4.3 µM); in assay [1] it was 0.1 µg/mL (≈ 0.276 µM); in the assay with Ent. faecium ATCC 8043, 0.2 µg/mL (≈ 0.552 µM); against Stap. aureus ATCC-6538p, 0.05 µg/mL (≈ 0.138 µM); in the assay on Strep. Pyogenes EES61, 0.39 µg/mL (≈ 1.08 µM); in the assay with Stap. epidermis 3519, 0.1 µg/mL (≈ 0.276 µM). Further, the MIC was 0.39 µg/mL (≈ 1.08 µM) against P. aeruginosa A5007, 0.05 µg/mL (≈ 0.138 µM) with E. coli Juhl, 0.05 µg/mL (≈ 0.138 µM) in the assay with Acinetobacter sp CMX 669 and 0.05 µg/mL (≈ 0.138 µM) against K. pneumoniae ATCC 8045.

Broadly, the MIC is the lowest concentration that inhibits growth of the organism.
